Patent publication US8304419B2, “Chemical compounds” (priority 2007, dated 2012)
Structures can show the parent of a compound that is named as a salt. Where two headings read alike, the source gives them in different places.

System: HIV wild type (WTRVA)
Test: HeLa cell assay, wild type virus (WTRVA)
Assay type: cell-based, HIV-1
Design: scale not given here
Conditions: Human immunodeficiency virus 1, HeLa
[1] = HeLa cell assay, read-out: IC50 against WTRVA
[2] = HeLa-CD4-LTR-β-gal cells, wild type virus, read-out: WTRVA activity level

| SMILES | IC50 [1] | IC50 [2] |
| --- | --- | --- |
| Cc1cc(C#N)cc(Oc2c(Cl)ccc(CNC(=O)c3[nH]c(C)nc3Br)c2F)c1 [Example 146, 4-bromo-N-({4-chloro-3-[(3-cyano-5-methylphenyl)oxy]-2-fluorophenyl}methyl)-2-methyl-1H-imidazole-5-carboxamide] | < 0.01 µM | – |
| Cc1c(C(=O)NCc2ccc(Cl)c(Oc3cc(Cl)cc(C#N)c3)c2F)oc2ccccc12 [Example 48, N-({4-chloro-3-[(3-chloro-5-cyanophenyl)oxy]-2-fluorophenyl}methyl)-3-methyl-1-benzofuran-2-carboxamide trifluoroacetate] | – | 0.01 to 1 µM |
| COc1ccc2[nH]c(C(=O)NCc3ccc(Cl)c(Oc4cc(Cl)cc(C#N)c4)c3F)cc2c1 [Example 20, N-({4-chloro-3-[(3-chloro-5-cyanophenyl)oxy]-2-fluorophenyl}methyl)-5-(methyloxy)-1H-indole-2-carboxamide] | – | 0.01 to 1 µM |
| N#Cc1cc(Cl)cc(Oc2c(Cl)ccc(CNC(=O)c3cc4cc(Cl)ccc4o3)c2F)c1 [Example 49, 5-chloro-N-({4-chloro-3-[(3-chloro-5-cyanophenyl)oxy]-2-fluorophenyl}methyl)-1-benzofuran-2-carboxamide trifluoroacetate] | – | > 1 µM |
| N#Cc1cc(CN2CCOCC2)cc(Oc2c(Cl)ccc(CNC(=O)c3[nH]cnc3Cl)c2F)c1 [Example 383, 4-chloro-N-[(4-chloro-3-{[3-cyano-5-(4-morpholinylmethyl)phenyl]oxy}-2-fluorophenyl)methyl]-1H-imidazole-5-carboxamide] | < 0.01 µM | – |
| N#Cc1cc(Cl)cc(Oc2c(Cl)ccc(CNC(=O)c3[nH]c4cc(Cl)ccc4c3Cl)c2F)c1 [Example 55, 3,6-dichloro-N-({4-chloro-3-[(3-chloro-5-cyanophenyl)oxy]-2-fluorophenyl}methyl)-1H-indole-2-carboxamide trifluoroacetate] | – | 0.01 to 1 µM |
| CCc1ccc(CNC(=O)c2[nH]c(C)nc2Cl)c(F)c1Oc1cc(Cl)cc(C#N)c1 [Example 249, 4-chloro-N-({3-[(3-chloro-5-cyanophenyl)oxy]-4-ethyl-2-fluorophenyl}methyl)-2-methyl-1H-imidazole-5-carboxamide] | < 0.01 µM | – |
| N#Cc1cc(Cl)cc(Oc2c(Cl)ccc(CNC(=O)c3[nH]c4ccccc4c3Br)c2F)c1 [Example 53, 3-bromo-N-({4-chloro-3-[(3-chloro-5-cyanophenyl)oxy]-2-fluorophenyl}methyl)-1H-indole-2-carboxamide] | – | 0.01 to 1 µM |
| N#Cc1cc(Br)cc(Oc2c(Cl)ccc(CNC(=O)c3[nH]cnc3Cl)c2F)c1 [Example 150, N-({3-[(3-bromo-5-cyanophenyl)oxy]-4-chloro-2-fluorophenyl}methyl)-4-chloro-1H-imidazole-5-carboxamide] | < 0.01 µM | – |
| CSc1nc(C(=O)NCc2ccc(Cl)c(Oc3cc(Cl)cc(C#N)c3)c2F)cn1C(c1ccccc1)(c1ccccc1)c1ccccc1 [Example 65, N-({4-chloro-3-[(3-chloro-5-cyanophenyl)oxy]-2-fluorophenyl}methyl)-2-(methylthio)-1-(triphenylmethyl)-1H-imidazole-4-carboxamide trifluoroacetate] | – | 0.01 to 1 µM |
| N#Cc1cc(Oc2c(Cl)ccc(CNC(=O)c3[nH]cnc3Br)c2F)cc(C(F)(F)F)c1 [Example 286, 4-bromo-N-[(4-chloro-3-{[3-cyano-5-(trifluoromethyl)phenyl]oxy}-2-fluorophenyl)methyl]-1H-imidazole-5-carboxamide] | < 0.01 µM | – |
| Cc1nc(Cl)c(C(=O)NCc2ccc(Cl)c(Oc3cc(C#N)cc(C4CC4)n3)c2F)[nH]1 [Example 273, 4-Chloro-N-({4-chloro-3-[(4-cyano-6-cyclopropyl-2-pyridinyl)oxy]-2-fluorophenyl}methyl)-2-methyl-1H-imidazole-5-carboxamide] | < 0.01 µM | – |
| CC(=O)Nc1ccc2[nH]c(C(=O)NCc3ccc(Cl)c(Oc4cc(Cl)cc(C#N)c4)c3F)nc2c1 [Example 125, 5-(acetylamino)-N-({4-chloro-3-[(3-chloro-5-cyanophenyl)oxy]-2-fluorophenyl}methyl)-1H-benzimidazole-2-carboxamide] | – | < 0.01 µM |
| CCc1c(C(=O)NCc2ccc(Cl)c(Oc3cc(Cl)cc(C#N)c3)c2F)[nH]c2ccc(OC)cc12 [Example 81, N-({4-chloro-3-[(3-chloro-5-cyanophenyl)oxy]-2-fluorophenyl}methyl)-3-ethyl-5-(methyloxy)-1H-indole-2-carboxamide trifluoroacetate] | – | 0.01 to 1 µM |
| CCCCc1nc(Cl)c(C(=O)NCc2ccc(Cl)c(Oc3cc(Cl)cc(C#N)c3)c2F)[nH]1 [Example 140, 2-butyl-4-chloro-N-({4-chloro-3-[(3-chloro-5-cyanophenyl)oxy]-2-fluorophenyl}methyl)-1H-imidazole-5-carboxamide trifluoroacetate] | – | < 0.01 µM |
| N#Cc1cc(Cl)cc(Oc2c(Cl)ccc(CNC(=O)c3cc4ccccc4o3)c2F)c1 [Example 47, N-({4-chloro-3-[(3-chloro-5-cyanophenyl)oxy]-2-fluorophenyl}methyl)-1-benzofuran-2-carboxamide trifluoroacetate] | – | 0.01 to 1 µM |
| N#Cc1cc(Cl)cc(Oc2c(Cl)ccc(CNC(=O)c3cc4cc(Cl)ccc4[nH]3)c2F)c1 [Example 109, 5-chloro-N-({4-chloro-3-[(3-chloro-5-cyanophenyl)oxy]-2-fluorophenyl}methyl)-1H-indole-2-carboxamide] | – | 0.01 to 1 µM |
| N#Cc1cc(Oc2c(Cl)ccc(CNC(=O)c3[nH]c(N)nc3Cl)c2F)cc(C2CC2)c1 [Example 307, 2-amino-4-chloro-N-({4-chloro-3-[(3-cyano-5-cyclopropylphenyl)oxy]-2-fluorophenyl}methyl)-1H-imidazole-5-carboxamide trifluoroacetate] | < 0.01 µM | – |
| N#Cc1cc(Cl)cc(Oc2c(Cl)ccc(CNC(=O)c3[nH]c(N)nc3Cl)c2F)c1 [Example 230, 2-amino-4-chloro-N-({4-chloro-3-[(3-chloro-5-cyanophenyl)oxy]-2-fluorophenyl}methyl)-1H-imidazole-5-carboxamide trifluoroacetate] | < 0.01 µM | – |
| COC(=O)c1ccc(C(=O)NCc2ccc(Cl)c(Oc3cc(Cl)cc(C#N)c3)c2)cc1 [Example 11, Methyl 4-{[({4-chloro-3-[(3-chloro-5-cyanophenyl)oxy]phenyl}methyl)amino]carbonyl}benzoate] | – | > 1 µM |
| COc1ccc(C(=O)NCc2ccc(Cl)c(Oc3cc(Cl)cc(C#N)c3)c2F)cn1 [Example 42, N-({4-chloro-3-[(3-chloro-5-cyanophenyl)oxy]-2-fluorophenyl}methyl)-6-(methyloxy)-3-pyridinecarboxamide] | – | 0.01 to 1 µM |
| CNCC(=O)Nc1ccc2[nH]c(C(=O)NCc3ccc(Cl)c(Oc4cc(Cl)cc(C#N)c4)c3F)cc2c1 [Example 119] | – | < 0.01 µM |
| N#Cc1cc(Cl)cc(Oc2cc(CNC(=O)c3cc4cc([N+](=O)[O-])ccc4[nH]3)ccc2Cl)c1 [Example 9, N-({4-chloro-3-[(3-chloro-5-cyanophenyl)oxy]phenyl}methyl)-5-nitro-1H-indole-2-carboxamide] | – | > 1 µM |
| CN(Cc1ccc(Cl)c(Oc2cc(Cl)cc(C#N)c2)c1F)C(=O)c1[nH]cnc1Cl [Example 132, 4-chloro-N-({4-chloro-3-[(3-chloro-5-cyanophenyl)oxy]-2-fluorophenyl}methyl)-N-methyl-1′-imidazole-5-carboxamide trifluoroacetate] | – | < 0.01 µM |
